Where only a bound is given, the exact number is not on record here.

The values that follow come from patent US20240148701A1, “WOULD HEALING METHODS” (The University of Sydney, priority 2021, published 2024).

In test [1] the test system is HUVECs. The test is described as follows: Cell migration by scratch assay in HUVECs (CL 316,243). Format: cell-based, human.
The test system of test [2] is human adult dermal microvascular endothelial cells (MVEC). The test can be described thus: Tubule formation in human adult dermal microvascular endothelial cells. Format: cell-based. The following applies: CL 316,243 100 ng/ml. The method, then:
Human umbilical vein endothelial cells (HUVECs; Lonza C2519AS, pooled source, Australia) were grown using standard cell culture conditions in endothelial cell growth medium (EGM Plus®, containing 2% fetal bovine serum, Lonza, Australia). All cells were regularly confirmed to be mycoplasma negative. Two different pooled source cell lines were used in experiments and all were used within passages 2-4. Human adult dermal microvascular endothelial cells were also obtained from Lonza (CC-2543, Lonza Australia) and cultured as above but using endothelial growth medium 2-MV bulletkit. Endothelial colony forming cells (ECFCs) were derived from the peripheral blood of participants in the BioHEART study. This registered study (ACTRN12618001322224) complies with the Declaration of Helsinki and the study protocol and design has been approved by the Northern Sydney Local Health District Human Research Ethics Committee (HREC/17/HAWKE/343). […]
Once they were ˜70% confluent, cells were re-suspended in diluted EGM Plus® (1:3) and plated on reduced-growth factor extracellular matrix (15 mg/ml, Cultrex, Trevigen, USA) at a density of 1.5×10^4 cells/cm^2. […] Cells were incubated in an EVOS FL Auto Imaging system for 16 hours and tubule formation recorded every hour. Optimal tube formation occurred at the 8-hour timepoint; tubule number at this point was quantified manually using NIH Image J software. […]

The test system of test [3] is C57BL6/J mice. The test can be described thus: Murine hind limb ischemia model, laser Doppler perfusion (non-diabetic mice). Format: in vivo, mouse. The method, then:
Male C57BL6/J mice 8-10 weeks of age were obtained from Australian BioResources (Moss Vale, NSW) with 12 hour light/dark cycles and free access to water and mouse chow (Specialty Feeds, Australia). Mice were housed in groups of 2-5 in standard cages within a Physical Containment Level 2 laboratory. For in vivo angiogenesis 16 mice underwent the femoral vascular ligation model. Mice were anaesthetized with 1.5-2% isoflurane vaporized in oxygen and constant body temperature was maintained. All mice received pre-operative and 24-hour post-operative analgesia (carprofen, 5 mg/kg s.c). A small incision (˜15 mm) was made in the hind limb skin directly over the femoral vasculature. A portion of the femoral artery and vein, distal to the origin of the profunda femoris artery and proximal to the saphenous artery, were isolated and two ligations were performed using 6-0 silk sutures. The femoral artery and vein were then excised between the ligation sites 27. An osmotic mini-pump (model 1002 [for 14 day protocols] or model 1004 [for 28 day protocols], Alzet, USA) containing either CL 316,243 (1 mg/kg/day) or vehicle (normal saline) was then implanted via the femoral skin opening and tunneled around and positioned in the dorsal flank. The mice were randomized 1:1 to treatment protocols prior to undergoing surgery. The skin was closed with non-continuous suture (Prolene 6-0, Johnson and Johnson Medical, Australia). Hind limb blood flow was assessed prior to ligation (baseline) and immediately after undergoing hind limb ischemia, with subsequent imaging at day 3, 7, 10, 14, 21 and 28 post hind limb ischemia. Some experiments were stopped at 14 days for assessment of hind limb histology and biochemistry. Software was used to analyze the perfusion flux (Moor, UK) and investigators were blinded to the treatment groups during the period of analysis. The rate of reperfusion in the hind limb was calculated as a ratio of blood flow in the ischemic versus non-ischemic contralateral limb.

Test [4] deals with eNOS. The test can be described thus: Immunoblot of eNOS expression and serine 1177 phosphorylation in ischemic hind limb. In kind it is in vivo, mouse. The following applies: ischemic hindlimb, type 1 diabetes model. Here is the method: Gastrocnemius samples were stored at −80° C. and then mechanically homogenized in ice-cold lysis buffer containing 150 mmol/L NaCl, 200 mmol/L Tris-HCl (pH 8.0), 1% Triton X-100, 0.5% deoxycholic acid, 0.1% SDS, N-ethylmaleimide (25 mM) and protease inhibitors (cOmplete™ EDTA-free, Roche Diagnostics). 30 μg of protein lysate was denatured and run under reducing conditions on SDS-PAGE (Bolt™ pre-cast gels and reagents, Thermofisher Scientific, Australia) and transferred onto Immobilon polyvinylidene fluoride membrane (Merck Millipore, Australia). Membranes were incubated in primary antibodies directed at determining protein expression of the following: Nox isoforms (anti-Nox 2, 1:5000; Abcam, Australia; anti-Nox-4, 1:5000; Abcam, Australia); reactive nitrogen species (anti-nitrotyrosine, 1:1000; Abcam, Australia); and both expression and phosphorylation of eNOS (anti Phospho eNOS serine 1177, 1:1000, Cell Signaling Technology, USA; anti-eNOS 1:1000, BD Biosciences, USA) and Akt (anti Phospho Akt 1:1000, Akt 1:1000, Cell Signaling Technology, USA). Specific secondary antibodies recognizing rabbit or mouse primary antibodies were used (IRDye®, Licor; 1:20,000, USA). Membranes were detected using an Odyssey imaging platform (Licor, USA).

Consider `C[C@H](Cc1ccc2c(c1)OC(C(=O)[O-])(C(=O)[O-])O2)NC[C@H](O)c1cccc(Cl)c1.[Na+].[Na+]` [CL 316,243], for which the “closure of denuded zone” value in test [1] (by 24 hours at the higher concentrations) was over 90%. In addition, the “migration of HUVECs into the denuded zone” value in test [1] (scratch assay over 24 hours, 1-1000 ng/ml, vs vehicle control) is on record as “significantly increased migration”. Moreover, the “angiogenesis (tubule formation) in endothelial cells from adults, dermal source” value in test [2] was “stimulated angiogenesis”. Besides, the “perfusion in the ischemic limbs” value in test [3] (1 mg/kg/day subcutaneous infusion, 10-14 days following ischemic injury, vs vehicle) was “significantly increased perfusion”. The “perfusion in the non-ischemic limb” value in test [3] (1 mg/kg/day systemic infusion) is on record as “increased perfusion”. Besides, the “ischemic non-ischemic ratio of perfusion” value in test [3] (14 days of hind limb ischemia, vs vehicle) is recorded as “no differences”. For the same molecule, in test [4], the eNOS expression result is “unaltered” and the “phosphorylation of eNOS at serine 1177” value is “did not appear to be affected”.
